pIC50, pKi: −log10 of the molar value. Calls of active or inactive are those of the source.
Assays:
[1] = biological target: T1, Fatty-acid amide hydrolase 1 (Mus musculus, UniProt O08914); experiment: Inhibition of mouse FAAH isolated from brain homogenate using [3H-ethanolamine]AEA as substrate incubated for 20 mins prior to substrate addition measured after 15 mins by beta counting analysis
T1 sequence (O08914 whole entry): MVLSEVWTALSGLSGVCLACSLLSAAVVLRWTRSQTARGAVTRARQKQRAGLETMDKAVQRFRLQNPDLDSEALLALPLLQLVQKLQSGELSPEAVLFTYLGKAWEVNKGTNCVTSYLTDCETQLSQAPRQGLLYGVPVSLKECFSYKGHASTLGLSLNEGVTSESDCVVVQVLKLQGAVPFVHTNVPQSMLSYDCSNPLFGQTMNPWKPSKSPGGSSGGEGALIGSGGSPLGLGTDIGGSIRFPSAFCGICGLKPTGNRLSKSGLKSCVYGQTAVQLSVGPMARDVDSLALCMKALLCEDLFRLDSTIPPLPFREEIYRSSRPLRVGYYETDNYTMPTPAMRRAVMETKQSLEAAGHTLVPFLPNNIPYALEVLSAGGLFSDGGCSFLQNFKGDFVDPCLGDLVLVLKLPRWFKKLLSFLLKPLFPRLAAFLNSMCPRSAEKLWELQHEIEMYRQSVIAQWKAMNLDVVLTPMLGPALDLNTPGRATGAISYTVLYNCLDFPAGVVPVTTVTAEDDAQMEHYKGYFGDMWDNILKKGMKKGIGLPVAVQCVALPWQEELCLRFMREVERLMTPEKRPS

Rattus norvegicus [2] = experiment: Analgesic activity in rat assessed as increase in paw withdrawal threshold at 100 mg/kg, po; assay type: functional, organism-based; design: dose 100 mg/kg
Rattus norvegicus [3] = experiment: Analgesic activity in rat assessed as increase in paw withdrawal threshold at 30 mg/kg, po; assay type: functional, organism-based; design: dose 30 mg/kg
Mus musculus [4] = experiment: Anxiolytic activity in mouse at 30 mg/kg, po measured for 5 mins by elevated plus maze test; assay type: organism-based; design: dose 30 mg/kg, route oral; settings: in vivo
Rattus norvegicus [5] = experiment: Analgesic activity in rat assessed as increase in paw withdrawal threshold at 10 mg/kg, po; assay type: functional, organism-based; design: dose 10 mg/kg
Mus musculus [6] = experiment: Anxiolytic activity in mouse at 10 mg/kg, po measured for 5 mins by elevated plus maze test; assay type: organism-based; design: dose 10 mg/kg, route oral; settings: in vivo
Mus musculus [7] = experiment: Toxicity against CD1 mouse assessed as limbic/striatal stereotypies at 100 mg/kg, po at 240 mins by Irwin test; assay type: organism-based; design: dose 100 mg/kg, route oral; settings: in vivo, 4 h
Mus musculus [8] = experiment: Anxiolytic activity in mouse at 3 mg/kg, po measured for 5 mins by elevated plus maze test; assay type: organism-based; design: dose 3 mg/kg, route oral; settings: in vivo
Mus musculus [9] = experiment: Toxicity against CD1 mouse assessed as limbic/striatal stereotypies at 30 mg/kg, po at 240 mins by Irwin test; assay type: organism-based; design: dose 30 mg/kg, route oral; settings: in vivo, 4 h
Mus musculus [10] = experiment: Toxicity against CD1 mouse assessed as limbic/striatal stereotypies at 10 mg/kg, po at 240 mins by Irwin test; assay type: organism-based; design: dose 10 mg/kg, route oral; settings: in vivo, 4 h
Mus musculus [11] = experiment: Toxicity against CD1 mouse assessed as limbic/striatal stereotypies at 30 mg/kg, po at 60 mins by Irwin test; assay type: organism-based; design: dose 30 mg/kg, route oral; settings: in vivo, 1 h
Mus musculus [12] = experiment: Toxicity against CD1 mouse assessed as limbic/striatal stereotypies at 100 mg/kg, po at 60 mins by Irwin test; assay type: organism-based; design: dose 100 mg/kg, route oral; settings: in vivo, 1 h
Mus musculus [13] = experiment: Toxicity against CD1 mouse assessed as limbic/striatal stereotypies at 10 mg/kg, po at 60 mins by Irwin test; assay type: organism-based; design: dose 10 mg/kg, route oral; settings: in vivo, 1 h
[14] = biological target: Voltage-gated inwardly rectifying potassium channel KCNH2 (Homo sapiens, UniProt Q12809); experiment: Inhibition of human ERG expressed in CHOK1 cells for 5 mins by automated patch clamp assay; assay type: cell-based, CHO-K1
[15] = biological target: T2, Monoglyceride lipase (Mus musculus) (UniProt O35678); experiment: Inhibition of MAGL-mediated 2AG hydrolysis in mouse brain homogenate using [3H]2OG as substrate incubated for 20 mins prior to substrate addition; assay type: tissue-based
T2 sequence (whole entry): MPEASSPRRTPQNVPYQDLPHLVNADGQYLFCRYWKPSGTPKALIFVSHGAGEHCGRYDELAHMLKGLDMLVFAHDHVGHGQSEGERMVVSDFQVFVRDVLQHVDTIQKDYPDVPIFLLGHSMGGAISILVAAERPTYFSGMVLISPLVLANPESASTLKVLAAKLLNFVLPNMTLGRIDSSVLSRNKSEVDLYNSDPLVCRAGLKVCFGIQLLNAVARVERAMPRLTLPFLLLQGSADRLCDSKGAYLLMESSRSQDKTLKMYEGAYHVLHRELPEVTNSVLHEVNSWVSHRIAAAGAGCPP

Mus musculus [16] = species on record: Mus musculus; experiment: Inhibition of DAGL-mediated 2AG synthesis in mouse brain homogenate using […] as substrate incubated for 20 mins prior to substrate addition; assay type: tissue-based
[17] = biological target: T3, N-acyl-phosphatidylethanolamine-hydrolyzing phospholipase D (Mus musculus) (UniProt Q8BH82); experiment: Inhibition of NAPE-PLD-meidated AEA synthesis in mouse brain homogenate using [3H]NArPE as substrate incubated for 20 mins prior to substrate addition; assay type: tissue-based
T3 sequence (whole entry): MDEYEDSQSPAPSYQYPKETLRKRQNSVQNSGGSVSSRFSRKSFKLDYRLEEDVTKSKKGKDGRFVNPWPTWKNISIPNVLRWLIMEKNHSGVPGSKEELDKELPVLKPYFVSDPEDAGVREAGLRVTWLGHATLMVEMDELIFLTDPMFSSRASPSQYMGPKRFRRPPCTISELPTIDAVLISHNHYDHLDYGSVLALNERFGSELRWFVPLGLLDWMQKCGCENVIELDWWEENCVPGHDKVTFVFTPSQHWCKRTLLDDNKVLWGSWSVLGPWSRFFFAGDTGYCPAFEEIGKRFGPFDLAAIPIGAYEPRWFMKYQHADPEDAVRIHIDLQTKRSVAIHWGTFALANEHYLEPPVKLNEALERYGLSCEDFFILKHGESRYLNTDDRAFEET

[18] = biological target: Transient receptor potential cation channel subfamily V member 1 (Mus musculus) (UniProt Q704Y3); experiment: Displacement of [3H]RTX from TRPV1 receptor in mouse brain fraction; assay type: tissue-based
[19] = biological target: Cannabinoid receptor 2 (Mus musculus) (UniProt P47936); experiment: Displacement of [3H]CP55.940 from CB2 receptor in mouse spleen fraction; assay type: tissue-based
[20] = biological target: Cannabinoid receptor 1 (Mus musculus) (UniProt P47746); experiment: Displacement of [3H]CP55.940 from CB1 receptor in mouse brain fraction; assay type: tissue-based
[21] = biological target: T4, Fatty-acid amide hydrolase 1 (Mus musculus) (UniProt O08914); experiment: Non-competitive inhibition of mouse FAAH isolated from brain homogenate using [3H-ethanolamine]AEA as substrate by Lineweaver-Burk plot analysis
T4 sequence (whole entry): T1 sequence (O08914 whole entry)

[22] = biological target: T4, Fatty-acid amide hydrolase 1 (Mus musculus); experiment: Reversible inhibition of mouse FAAH isolated from brain homogenate using [3H-ethanolamine]AEA as substrate incubated for 20 mins prior to substrate addition measured after 18 hrs by […] method

Sequence of Transient receptor potential cation channel subfamily V member 1 (Mus musculus) (Q704Y3 whole entry): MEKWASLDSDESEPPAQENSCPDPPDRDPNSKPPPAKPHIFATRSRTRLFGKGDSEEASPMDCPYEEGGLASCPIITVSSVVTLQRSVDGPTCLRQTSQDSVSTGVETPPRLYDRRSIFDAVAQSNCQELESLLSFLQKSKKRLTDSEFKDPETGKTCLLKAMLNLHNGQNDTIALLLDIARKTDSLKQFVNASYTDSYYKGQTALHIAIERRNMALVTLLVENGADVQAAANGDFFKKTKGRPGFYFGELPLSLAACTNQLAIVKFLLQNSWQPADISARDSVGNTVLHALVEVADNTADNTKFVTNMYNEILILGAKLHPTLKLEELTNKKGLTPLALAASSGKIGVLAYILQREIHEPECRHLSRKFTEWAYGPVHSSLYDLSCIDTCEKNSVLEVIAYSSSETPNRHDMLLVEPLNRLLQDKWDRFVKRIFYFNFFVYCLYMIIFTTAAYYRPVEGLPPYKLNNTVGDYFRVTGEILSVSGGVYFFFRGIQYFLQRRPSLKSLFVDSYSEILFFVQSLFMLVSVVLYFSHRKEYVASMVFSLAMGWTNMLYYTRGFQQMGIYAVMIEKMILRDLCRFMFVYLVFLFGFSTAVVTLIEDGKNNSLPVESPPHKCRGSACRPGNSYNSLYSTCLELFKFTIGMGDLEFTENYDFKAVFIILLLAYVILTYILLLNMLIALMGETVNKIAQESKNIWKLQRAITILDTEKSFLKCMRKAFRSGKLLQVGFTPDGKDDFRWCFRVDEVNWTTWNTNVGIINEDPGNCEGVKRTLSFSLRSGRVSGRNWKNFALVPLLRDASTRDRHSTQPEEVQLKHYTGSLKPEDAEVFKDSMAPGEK
Sequence of Cannabinoid receptor 1 (Mus musculus) (P47746 whole entry): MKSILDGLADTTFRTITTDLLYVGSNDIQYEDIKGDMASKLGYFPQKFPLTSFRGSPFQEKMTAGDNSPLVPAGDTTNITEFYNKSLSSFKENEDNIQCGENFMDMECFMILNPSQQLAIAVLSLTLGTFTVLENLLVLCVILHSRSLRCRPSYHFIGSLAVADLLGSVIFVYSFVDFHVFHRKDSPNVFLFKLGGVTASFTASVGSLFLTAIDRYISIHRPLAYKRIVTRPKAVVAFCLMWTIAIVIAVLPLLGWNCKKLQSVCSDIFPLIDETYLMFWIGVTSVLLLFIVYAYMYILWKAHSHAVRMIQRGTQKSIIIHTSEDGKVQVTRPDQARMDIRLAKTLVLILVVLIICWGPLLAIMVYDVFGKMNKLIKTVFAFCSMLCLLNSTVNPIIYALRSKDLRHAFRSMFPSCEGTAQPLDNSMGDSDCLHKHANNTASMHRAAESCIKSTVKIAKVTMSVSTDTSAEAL
Sequence of Cannabinoid receptor 2 (Mus musculus) (P47936 whole entry): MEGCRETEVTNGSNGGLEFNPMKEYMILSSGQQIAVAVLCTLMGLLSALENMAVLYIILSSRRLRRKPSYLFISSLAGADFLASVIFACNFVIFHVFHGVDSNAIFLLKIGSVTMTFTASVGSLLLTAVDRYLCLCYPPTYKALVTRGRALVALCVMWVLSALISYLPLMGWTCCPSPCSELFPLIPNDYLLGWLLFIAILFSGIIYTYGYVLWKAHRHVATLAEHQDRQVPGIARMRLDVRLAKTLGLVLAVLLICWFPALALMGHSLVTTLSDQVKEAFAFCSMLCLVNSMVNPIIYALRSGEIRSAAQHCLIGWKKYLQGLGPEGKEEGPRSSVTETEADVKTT
Sequence of Voltage-gated inwardly rectifying potassium channel KCNH2 (Q12809 whole entry): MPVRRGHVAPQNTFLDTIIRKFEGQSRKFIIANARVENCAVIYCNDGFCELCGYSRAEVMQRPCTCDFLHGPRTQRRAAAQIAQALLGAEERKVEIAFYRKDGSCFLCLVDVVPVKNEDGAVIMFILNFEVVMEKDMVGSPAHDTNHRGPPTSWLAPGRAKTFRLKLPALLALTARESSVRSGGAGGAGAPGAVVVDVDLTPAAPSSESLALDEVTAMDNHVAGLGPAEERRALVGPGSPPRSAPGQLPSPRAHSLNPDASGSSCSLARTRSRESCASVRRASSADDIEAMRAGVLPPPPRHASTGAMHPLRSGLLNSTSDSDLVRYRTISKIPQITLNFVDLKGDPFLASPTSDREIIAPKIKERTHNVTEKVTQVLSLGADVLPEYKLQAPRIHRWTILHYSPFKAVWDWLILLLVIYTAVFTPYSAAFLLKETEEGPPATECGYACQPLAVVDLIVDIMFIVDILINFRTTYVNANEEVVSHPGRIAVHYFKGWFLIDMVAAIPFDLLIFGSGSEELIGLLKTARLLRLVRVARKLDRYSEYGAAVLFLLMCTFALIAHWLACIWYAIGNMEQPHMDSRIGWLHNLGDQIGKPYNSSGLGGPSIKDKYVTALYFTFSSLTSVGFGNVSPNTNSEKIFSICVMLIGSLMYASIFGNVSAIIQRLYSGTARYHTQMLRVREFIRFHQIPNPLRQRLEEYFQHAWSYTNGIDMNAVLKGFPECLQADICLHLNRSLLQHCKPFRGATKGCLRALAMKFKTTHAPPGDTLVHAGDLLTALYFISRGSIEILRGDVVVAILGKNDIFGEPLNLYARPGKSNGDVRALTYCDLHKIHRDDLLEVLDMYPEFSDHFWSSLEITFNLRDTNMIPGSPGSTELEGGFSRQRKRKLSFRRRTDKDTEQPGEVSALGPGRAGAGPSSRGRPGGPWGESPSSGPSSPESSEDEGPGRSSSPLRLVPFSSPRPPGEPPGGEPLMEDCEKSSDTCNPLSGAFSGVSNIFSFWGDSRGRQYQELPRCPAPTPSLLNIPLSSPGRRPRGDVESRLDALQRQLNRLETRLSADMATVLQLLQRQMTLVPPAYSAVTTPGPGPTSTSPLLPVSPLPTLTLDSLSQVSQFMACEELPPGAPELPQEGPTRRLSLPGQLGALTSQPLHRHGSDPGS

C#CCCCCCCCCCOC(=O)c1ccn(-c2cccc(OC(=O)NCCCC)c2)c1
pIC50 [1]: < 7.15

COc1cccc(-c2c(C(=O)NCCCCCc3ccccc3)cc(C)n2Cc2ccccc2)c1
pIC50 [1]: < 4.30

NC(=O)c1ccn(-c2cccc(OC(=O)NCCCCCCc3ccccc3)c2)c1
Activity (Rattus norvegicus [2]): Active | Activity (Rattus norvegicus [3]): Active | Activity (Mus musculus [4]): Non-toxic | Activity (Rattus norvegicus [5]): inactive | Activity (Mus musculus [6]): Non-toxic | Activity (Mus musculus [7]): Toxic | Activity (Mus musculus [8]): Non-toxic | Activity (Mus musculus [9]): Toxic | Activity (Mus musculus [10]): Toxic | Activity (Mus musculus [11]): Toxic | Activity (Mus musculus [12]): Toxic | Activity (Mus musculus [13]): Toxic | pIC50 [14]: < 5.00 | inhibition [15]: inactive | inhibition (Mus musculus [16]): inactive | inhibition [17]: inactive | Activity [18]: inactive | Activity [19]: inactive | Activity [20]: inactive | inhibition [21]: Active | inhibition [22]: Active | pIC50 [1]: 9.22 | pKi [1]: 9.80

NC(=O)c1ccn(-c2cccc(OC(=O)NCCOCCOc3ccc(F)cc3F)c2)c1
inhibition [22]: Active | pIC50 [1]: 7.55 | pKi [1]: 8.15

CCCCNC(=O)Oc1cccc(-c2oc(C)cc2C(N)=O)c1
pIC50 [1]: 6.28 | pKi [1]: 6.85

NC(=O)c1ccn(-c2cccc(OC(=O)NCCOCCOc3ccc(F)cc3)c2)c1
inhibition [22]: Active | pIC50 [1]: 7.51 | pKi [1]: 8.10

Cc1cc(C(N)=O)c(-c2cccc(OC(=O)NC3CCCCC3)c2)o1
pIC50 [1]: < 7.15

C#CCCCCCCCCCOC(=O)c1ccn(-c2cccc(OC(=O)NCCCCCCc3ccccc3)c2)c1
pIC50 [1]: < 6.70

NC(=O)c1ccn(-c2cccc(OC(=O)NCCOCCOc3ccccc3)c2)c1
pIC50 [1]: 7.06 | pKi [1]: 7.64

O=C(CCCCCCc1ccccc1)c1ncc(-c2ccccn2)o1
inhibition [22]: Active

O=C(NC1CCCCC1)Oc1cccc(-n2ccc(C(=O)OCCCCCCc3ccccc3)c2)c1
pIC50 [1]: < 4.30

NC(=O)c1ccn(-c2cccc(OC(=O)NCCOCCOc3ccccc3F)c2)c1
pIC50 [1]: 7.16 | pKi [1]: 7.74

NC(=O)c1ccn(-c2cccc(OC(=O)NC3CCCCC3)c2)c1
pIC50 [1]: 6.92 | pKi [1]: 7.49

C#CCCCCCCCCCNC(=O)Oc1cccc(-n2ccc(C(N)=O)c2)c1
Activity (Rattus norvegicus [2]): Active | Activity (Rattus norvegicus [3]): Active | Activity (Mus musculus [4]): Non-toxic | Activity (Rattus norvegicus [5]): inactive | Activity (Mus musculus [6]): Non-toxic | Activity (Mus musculus [7]): Non-toxic | Activity (Mus musculus [8]): Non-toxic | Activity (Mus musculus [9]): Non-toxic | Activity (Mus musculus [10]): Non-toxic | Activity (Mus musculus [11]): Toxic | Activity (Mus musculus [12]): Toxic | Activity (Mus musculus [13]): Toxic | inhibition [15]: inactive | inhibition (Mus musculus [16]): inactive | inhibition [17]: inactive | Activity [18]: inactive | Activity [19]: inactive | Activity [20]: inactive | pIC50 [1]: 9.17 | pKi [1]: 9.74

Cc1cc(C(=O)NCCCCCCc2ccccc2)c(-c2cccc(OC(=O)NC3CCCCC3)c2)n1Cc1ccccc1
pIC50 [1]: < 6.70

Cc1oc(-c2cccc(OC(=O)NCCCCCCc3ccccc3)c2)cc1C(N)=O
pIC50 [1]: 7.74 | pKi [1]: 8.32

CCCCNC(=O)Oc1cccc(-n2ccc(C(=O)OCCCCCCc3ccccc3)c2)c1
pIC50 [1]: < 6.70

C#CCCCCCCCCCOC(=O)c1ccn(-c2cccc(OC(=O)NC3CCCCC3)c2)c1
pIC50 [1]: < 5.00

CCCCNC(=O)Oc1cccc(-n2ccc(C(N)=O)c2)c1
pIC50 [1]: 6.62 | pKi [1]: 7.22

Cc1cc(C(N)=O)c(-c2cccc(OC(=O)NC3CCCCC3)c2)s1
pIC50 [1]: < 6.70

Cc1cc(C(N)=O)c(-c2cccc(OC(=O)NCCCCCCc3ccccc3)c2)s1
pIC50 [14]: < 5.00 | inhibition [15]: inactive | inhibition (Mus musculus [16]): inactive | inhibition [17]: inactive | Activity [18]: inactive | Activity [19]: inactive | Activity [20]: inactive | inhibition [21]: Active | inhibition [22]: Active | pIC50 [1]: 8.72 | pKi [1]: 9.30

CCCCNC(=O)Oc1cccc(-c2sc(C)cc2C(N)=O)c1
pIC50 [1]: < 6.70

Cc1oc(-c2cccc(OC(=O)NC3CCCCC3)c2)cc1C(N)=O
pIC50 [1]: < 6.70

NC(=O)c1ccn(-c2cccc(OC(=O)NCCOCCOc3c(F)cc(F)cc3F)c2)c1
pIC50 [1]: 7.37 | pKi [1]: 7.96

COc1cccc(-c2c(C(=O)NCCCCCCc3ccccc3)cc(C)n2Cc2ccccc2)c1
pIC50 [1]: < 6.70

CCCCNC(=O)Oc1cccc(-c2cc(C(N)=O)c(C)o2)c1
pIC50 [1]: < 6.70

From ChEMBL document CHEMBL2163339, “Discovery of potent inhibitors of human and mouse fatty acid amide hydrolases” (J Med Chem, 2012)
